US12686676B2, “Compound, endothelin-A receptor antagonist, and pharmaceutical composition” (Alchemedicine, Inc., priority 2021, dated 2026)
pIC50: −log10 of the molar value.

Columns and labels:
[1] = target: T1, human endothelin A receptor (Homo sapiens, UniProt P25101); experiment: Endothelin A receptor inhibitory effect (aequorin light emission, endothelin at EC80); format: cell-based; conditions: for pIC50: CHO-K1-mt aequorin cells expressing human endothelin A receptor, endothelin at EC80, read-out: ETA receptor inhibitory effect; for ETA selectivity (ETB/ETA): ETB IC50 value/ETA IC50 value
T1 construct: expressed in transfected cells; host or cells: CHO-K1-mt aequorin cells
T1 sequence (P25101 21-427): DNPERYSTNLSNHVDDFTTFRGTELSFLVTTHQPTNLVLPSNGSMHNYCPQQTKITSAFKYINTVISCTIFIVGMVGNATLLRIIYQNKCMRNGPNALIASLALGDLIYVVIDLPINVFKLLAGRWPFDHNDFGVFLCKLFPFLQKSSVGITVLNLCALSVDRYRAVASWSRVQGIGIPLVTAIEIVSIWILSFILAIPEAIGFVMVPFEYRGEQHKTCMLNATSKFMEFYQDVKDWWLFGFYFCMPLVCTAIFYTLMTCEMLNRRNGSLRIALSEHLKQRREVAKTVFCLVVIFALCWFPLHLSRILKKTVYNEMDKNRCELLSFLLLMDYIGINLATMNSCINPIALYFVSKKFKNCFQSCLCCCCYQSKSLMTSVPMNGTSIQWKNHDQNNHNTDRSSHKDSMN
Procedure: The inhibitory effect on an endothelin A receptor was studied by the following method.
(§1) CHO-K1-mt aequorin cells forced to express a human endothelin A receptor (Accession Number NP_001948.1) were cultured in an antibiotic-free medium for 18 hours, then treated with PBS-EDTA (5 mM EDTA), centrifuged (2 min, 405×g, room temperature), and then suspended in an assay buffer (DMEM/HAM's F12 with HEPES+0.1% BSA protease free).
(§2) 1×10^6 cells/mL of the cells were incubated at room temperature for 4 hours in the presence of coelenterazine h (Molecular Probes, Inc.) (final concentration: 5 µM). Agonistic reaction based on endothelin was confirmed to determine an endothelin concentration corresponding to EC80.
(§3) Subsequently, 50 µL (10000 cells/well) of the cell suspension treated with coelenterazine h and 50 µL of an assay buffer containing a test substance (final concentration: 0.5% in DMSO) were added to each well of a 96-well plate. 15 minutes later, endothelin was added such that its final concentration was an EC80 concentration. Receptor activity was measured as the quantity of light emission in FDSS6000 (Hamamatsu Photonics K.K.). IC50 values were calculated using XLfit (ID Business Solutions Ltd. (IDBS)).

[2] = target: T2, human endothelin B receptor (Homo sapiens, UniProt P24530); experiment: Endothelin B receptor inhibitory effect (aequorin light emission, endothelin at EC80); format: cell-based; conditions: CHO-K1-mt aequorin cells expressing human endothelin B receptor; endothelin at EC80; read-out: ETB receptor inhibitory effect
T2 construct: expressed in transfected cells; host or cells: CHO-K1-mt aequorin cells
T2 sequence (P24530 27-442): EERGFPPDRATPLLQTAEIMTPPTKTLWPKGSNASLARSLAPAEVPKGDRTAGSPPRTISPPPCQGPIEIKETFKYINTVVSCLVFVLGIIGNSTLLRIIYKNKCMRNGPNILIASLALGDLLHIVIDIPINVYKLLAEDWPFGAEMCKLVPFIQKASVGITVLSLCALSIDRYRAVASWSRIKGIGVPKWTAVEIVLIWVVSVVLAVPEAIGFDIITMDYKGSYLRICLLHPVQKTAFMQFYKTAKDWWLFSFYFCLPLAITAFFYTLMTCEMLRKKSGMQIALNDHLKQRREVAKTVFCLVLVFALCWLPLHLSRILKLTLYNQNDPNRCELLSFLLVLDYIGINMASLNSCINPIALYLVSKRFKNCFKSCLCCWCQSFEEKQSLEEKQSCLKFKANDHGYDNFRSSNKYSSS
Procedure: The inhibitory effect on an endothelin B receptor was studied by the following method.
as §1, with “endothelin B” for “endothelin A”, “Number NP_000106.1)” for “Number NP_001948.1)”
as §2
as §3, with “K.K.).” for “K.K.). IC50 values were calculated using XLfit (ID Business Solutions Ltd. (IDBS)).”

[3] = target: T3, CYP2C9 (Homo sapiens, UniProt P11712); experiment: CYP2C9 inhibitory effect (liver microsome fraction, diclofenac substrate); format: in vitro ADME; conditions: liver microsome fraction 0.5 mg/mL, diclofenac 2.5 μM
T3 construct: A frozen liver microsome fraction was thawed on ice; from tissue; host or cells: liver microsome fraction
T3 sequence (P11712 whole entry): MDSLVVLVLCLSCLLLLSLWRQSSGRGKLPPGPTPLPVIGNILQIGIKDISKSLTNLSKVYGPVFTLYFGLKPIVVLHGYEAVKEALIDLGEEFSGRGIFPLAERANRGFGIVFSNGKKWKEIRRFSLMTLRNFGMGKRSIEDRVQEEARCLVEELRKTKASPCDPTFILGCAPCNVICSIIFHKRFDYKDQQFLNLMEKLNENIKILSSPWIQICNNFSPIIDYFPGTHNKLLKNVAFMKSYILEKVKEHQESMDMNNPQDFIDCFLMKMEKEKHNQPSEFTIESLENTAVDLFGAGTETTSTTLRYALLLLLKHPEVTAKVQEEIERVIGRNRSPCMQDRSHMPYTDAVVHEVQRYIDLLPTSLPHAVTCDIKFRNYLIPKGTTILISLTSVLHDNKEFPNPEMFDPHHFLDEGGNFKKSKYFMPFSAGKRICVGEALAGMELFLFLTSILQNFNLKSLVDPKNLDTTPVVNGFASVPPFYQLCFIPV
Procedure: The inhibitory effect on CYP2C9 was evaluated by the following method. • (1) A frozen liver microsome fraction was thawed on ice and diluted with a potassium phosphate buffer (PPB) to a final concentration of 0.5 mg/mL. • (2) A substrate for evaluation (diclofenac: D6899 from Sigma-Aldrich Co. LLC) was added thereto such that its final concentration was 2.5 μM. • (3) The mixture was slowly mixed and incubated at 37±1° C. for 5 minutes to prepare a reaction solution. • (4) 801 μL of the reaction solution was dispensed to each tube, and an evaluation compound serially diluted with 0.9 μL of DMSO was added thereto such that its final concentration was 9.1 to 20000 nM (⅓ dilutions with 8 concentrations). In this context, 0.9 μL of DMSO was added to a negative control group, and 0.9 μL of sulfaphenazole (S0758 from Sigma-Aldrich Co. LLC) adjusted to a final concentration of 1 μM with DMSO was added to a positive control group. • (5) After mixing, a 270 μL aliquot was transferred to each of two fresh tubes and incubated in a shaking water bath at 37±1° C. for 5 minutes. • (6) Reaction was started by the addition of 30 μL of 10 mM NADPH, and the tubes were incubated at 37° C.±1° C. for 10 minutes. • (7) The tubes were taken out of the shaking water bath, and the reaction was terminated by the addition of 300 μL of a reaction stop solution. After mixing, the tubes were centrifuged at 1021×g at 4° C. for 20 minutes. • (8) The amount of the substrate for evaluation metabolized was determined by LC-MS/MS to calculate the rate of inhibition at each concentration of the evaluation compound. • (9) IC50 values were calculated using GraphPad Prism5. A sample having an IC50 value of 1 μM or lower was given “++”; a sample having an IC50 value in the range of higher than 1 μM and 10 μM or lower was given “+”; and a sample having an IC50 value of higher than 10 μM was given “−”.

[4] = target: T4, ETA receptor (Homo sapiens, UniProt P25101); conditions: cited from earlier work
T4 sequence (P25101 21-427): T1 sequence (P25101 21-427)

[5] = pulmonary hypertension associated with connective tissue disease; cited from earlier work
[6] = in vivo; cited from earlier work
[7] = in vivo; cited from earlier work; remark: listed apart in the source

SMILES	pIC50 [1]	ETA selectivity (ETB/ETA) [1]	pIC50 [2]	pIC50 [3]	Selective inhibition of ETA receptor in contrast to ETB receptor [4]	Drug efficacy in clinical trials [5]	Effect on endothelin concentrations in blood [6]	Peripheral edema [7]
Cc1cc2c(cc1CC(=O)c1sccc1S(=O)(=O)Nc1onc(C)c1Cl)OCO2 [Comparative Example 1, sitaxentan, reference compound]	8.00 to 9.00	++ (ETB IC50 value/ETA IC50 value of higher than 5000)	< 5.30	≥ 6.00	selectively inhibit the ETA receptor	significant drug efficacy	not increase endothelin concentrations in blood	not cause peripheral edema
Cc1cc2c(cc1C#Cc1ncccc1S(=O)(=O)Nc1noc(C)c1C)C(C)OC2 (centres unmarked) [Example 2, 2-((3,6-Dimethyl-1,3-dihydroisobenzofuran-5-yl)ethynyl)-N-(4,5-dimethylisoxazol-3-yl)pyridine-3-sulfonamide]	≥ 9.00	++ (ETB IC50 value/ETA IC50 value of higher than 5000)	< 5.30					
Cc1cc2c(cc1CC(=O)c1sccc1S(=O)(=O)Nc1onc(C)c1Cl)COC2 [Comparative Example 2, reference compound]	≥ 9.00	++ (ETB IC50 value/ETA IC50 value of higher than 5000)	< 5.30	≥ 6.00				
Cc1cc2c(cc1C#Cc1ncccc1S(=O)(=O)Nc1noc(C)c1C)COC2C (centres unmarked) [Example 11, 2-((1,6-Dimethyl-1,3-dihydroisobenzofuran-5-yl)ethynyl)-N-(4,5-dimethylisoxazol-3-yl)pyridine-3-sulfonamide]	8.00 to 9.00		< 5.30					
